Test results from US20070082952A1, “Pharmaceutical compositions, methods of preparation thereof, and methods of treatment” (priority 2005, published 2007).

What was measured:
[1] = aqueous solubility; type: physicochemical
Description: An obstacle to the use of 3-biphenyl-4-yl-(2S)-[(4′-trifluoromethyl-biphenyl-4-carbonyl)-amino]-propionic acid in certain pharmacological forms is its aqueous solubility (less than 0.5 micrograms/milliliter (μg/mL)), which may make the bioavailability of biphenyl-4-yl-(2S)-[(4′-trifluoromethyl-biphenyl-4-carbonyl)-amino]-propionic acid lower than desirable. A composition of the present invention, having an increased dissolution rate, advantageously enhances the bioavailability of 3-biphenyl-4-yl-(2S)-[(4′-trifluoromethyl-biphenyl-4-carbonyl)-amino]-propionic acid, particularly when dosed orally.

[2] = Dissolution, USP method 2 (paddles at 75 rpm, 0.025 M NaH2PO4 with 2% SDS, pH 6.8); type: physicochemical; conditions: 2×100 mg, pH 6.8, paddles 75 rpm
Description: Dissolution of the wet granulation tablets of Example 1 and the dry formulation capsules of Example 2 was determined using USP method 2 (paddles at 75 rpm, 0.025 M NaH2PO4 with 2% sodium dodecyl sulfate (SDS), pH 6.8).

O=C(N[C@@H](Cc1ccc(-c2ccccc2)cc1)C(=O)O)c1ccc(-c2ccc(C(F)(F)F)cc2)cc1 [3-biphenyl-4-yl-(2S)-[(4′-trifluoromethyl-biphenyl-4-carbonyl)-amino]-propionic acid]
aqueous solubility [1]: less than 0.5 μg/mL | Percent 3-Biphenyl-4-yl-(2S)-[(4′-trifluoromethyl-biphenyl-4-carbonyl)-amino]-propionic acid Dissolved ([2]; Time 0 min): 0% | Percent 3-Biphenyl-4-yl-(2S)-[(4′-trifluoromethyl-biphenyl-4-carbonyl)-amino]-propionic acid Dissolved ([2]; Time 15 min): 43.2% | Percent 3-Biphenyl-4-yl-(2S)-[(4′-trifluoromethyl-biphenyl-4-carbonyl)-amino]-propionic acid Dissolved ([2]; Time 30 min): 57.0% | Percent 3-Biphenyl-4-yl-(2S)-[(4′-trifluoromethyl-biphenyl-4-carbonyl)-amino]-propionic acid Dissolved ([2]; Time 45 min): 67.3% | Percent 3-Biphenyl-4-yl-(2S)-[(4′-trifluoromethyl-biphenyl-4-carbonyl)-amino]-propionic acid Dissolved ([2]; Time 60 min): 73.9%
